Source: ChEMBL document CHEMBL1155644, “New marine cembrane-type diterpenoids from the Okinawan soft coral Clavularia koellikeri” (J Nat Prod, 2000)
≈ marks a conversion by molar mass, not a printed value. Calls of active or inactive are those of the source. No cut-off for these calls is given here.

How the values were obtained:
Assay type in all cases: functional, cell-based
DLD-1 [1] = assay: Cytotoxicity against human DLD1 cells
DLD-1 [2] = assay: Cytotoxicity against human DLD1 cells at 0.6 uM/mL
MOLT-4 [3] = assay: Cytotoxicity against human MOLT4 cells
MOLT-4 [4] = assay: Cytotoxicity against human MOLT4 cells at 0.6 uM/mL

Structure (SMILES) | IC50 (DLD-1 [1]) [µg/mL] | Activity (DLD-1 [2]) | IC50 (MOLT-4 [3]) [µg/mL] | Activity (MOLT-4 [4])
C=C1C(=O)O[C@H]2/C=C(\C)C[C@H](OC(C)=O)/C=C(\C)C[C@H](OC(C)=O)/C=C(\C)C[C@H](OC(C)=O)[C@H]12 | 4.2 (≈ 8.85 µM) | Active | 0.9 (≈ 1.9 µM) | Active
C=C1C(=O)O[C@H]2/C=C(\C)C[C@H](OC(C)=O)/C=C(\C)CC/C=C(\C)C[C@H](O)[C@H]12 | – | Active | – | Active
